This note sets out measurements from PubChem BioAssay AID250 (DTP/NCI, 2004).

The structures appear in SMILES notation. Where “and” joins values, the source holds several entries; their conditions need not be identical. Equal values may be shown once. Inconclusive results and toxic doses are left out. Numbered stars: 1 amine (or outer) side, 2 acyl side, 3 side chain; on linkers, the order of the positions; unused ones are H or OH. Bridge positions count the residues as written; N and C are the ends. Square brackets hold non-standard residues; d marks the D form. Peptide text beside a SMILES is read from it. I, II: the chains in the order shown. Actinocin(9to1) = Cc1c2oc3c(C)ccc(C(=O)[*:1])c3nc-2c(C(=O)[*:2])c(N)c1=O; aThr = C[C@H](O)[C@H](N)C(=O)O; NMeV = CN[C@H](C(=O)O)C(C)C; Sar = CNCC(=O)O

The test system of this assay is BDF1 mice, L1210 leukemia sc, survival T/C. Briefly: NCI In Vivo Anticancer Drug Screen. Data for tumor model L1210 Leukemia (subcutaneous) in B6D2F1 (BDF1) mice. Conditions: endpoint: median survival time, higher = longer survival. In outline: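 Read-out: T/C ratio, i.e. survival or tumor size in treated mice over that in vehicle-treated controls, from mice bearing transplantable tumors.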

The mark [1] stands for this setting: dose: 39.0 mg/kg/injection, schedule: Q01DX Z (sc), vehicle: methylcellulose (MC).
The mark [2] stands for this setting: dose: 65.0 mg/kg/injection, schedule: Q01DX Z (sc), vehicle: methylcellulose (MC).
[3] abbreviates: dose: 108.0 mg/kg/injection, schedule: Q01DX Z (sc), vehicle: methylcellulose (MC).
Setting [4] is: dose: 180.0 mg/kg/injection, schedule: Q01DX Z (sc), vehicle: methylcellulose (MC).
[5] abbreviates: dose: 8.4 mg/kg/injection, schedule: Q01DX Z (sc), vehicle: water.
[6] abbreviates: dose: 14.0 mg/kg/injection, schedule: Q01DX Z (sc), vehicle: water.
The mark [7] stands for this setting: dose: 23.0 mg/kg/injection, schedule: Q01DX Z (sc), vehicle: water.
Where [8] appears, read: dose: 300.0 mg/kg/injection, schedule: Q01DX Z (sc), vehicle: methylcellulose (MC).
The mark [9] stands for this setting: dose: 500.0 mg/kg/injection, schedule: Q01DX Z (sc), vehicle: methylcellulose (MC).
[10] abbreviates: dose: 833.0 mg/kg/injection, schedule: Q01DX Z (sc), vehicle: methylcellulose (MC).
The mark [11] stands for this setting: dose: 180.0 mg/kg/injection, schedule: Q01DX Z (sc), vehicle: carboxymethylcellulose (CMC).
Setting [12] is: dose: 300.0 mg/kg/injection, schedule: Q01DX Z (sc), vehicle: carboxymethylcellulose (CMC).
Where [13] appears, read: dose: 23.0 mg/kg/injection, schedule: Q01DX Z (sc), vehicle: saline.

With `Nc1nc(N)c2nc(CNc3ccc(C(=O)NC(CCC(=O)O)C(=O)O)cc3)cnc2n1` (stereo not drawn), the T/C by setting is: (dose: 0.04 mg/kg/injection, schedule: Q01DX Z (sc), vehicle: other) 100 % of control; (dose: 0.05 mg/kg/injection, schedule: Q01DX Z (sc), vehicle: other) 100 % of control; (dose: 0.08 mg/kg/injection, schedule: Q01DX Z (sc), vehicle: other) 100 % of control; (dose: 0.4 mg/kg/injection, schedule: Q01DX Z (sc), vehicle: other) 120 % of control; (dose: 0.6 mg/kg/injection, schedule: Q01DX Z (sc), vehicle: other) 120 % of control; (dose: 0.89 mg/kg/injection, schedule: Q01DX Z (sc), vehicle: other) 120 % of control. The T/C was 110 % of control (dose: 1.33 mg/kg/injection, schedule: Q01DX Z (sc), vehicle: other) and 120 % of control (dose: 2.0 mg/kg/injection, schedule: Q01DX Z (sc), vehicle: other).
As to `Cc1c2oc3c(C)ccc(C(=O)N[C@@H]4C(=O)N[C@H](C(C)C)C(=O)N5CCC[C@H]5C(=O)N(C)CC(=O)N(C)[C@@H](C(C)C)C(=O)O[C@H]4C)c3nc-2c(C(=O)N[C@@H]2C(=O)N[C@H](C(C)C)C(=O)N3CCC[C@H]3C(=O)N(C)CC(=O)N(C)[C@@H](C(C)C)C(=O)O[C@H]2C)c(N)c1=O` (I: [aThr][dV]P[Sar][NMeV] / II: [aThr][dV]P[Sar][NMeV]; ester I:1-I:C, II:1-II:C; linker I:N-II:N via Actinocin(9to1)), the T/C is, setting by setting: (dose: 0.07 mg/kg/injection, schedule: Q01DX009 (sc), vehicle: saline) 95 % of control; (dose: 0.07 mg/kg/injection, schedule: Q01DX Z (sc), vehicle: saline) 110 % of control; (dose: 0.15 mg/kg/injection, schedule: Q01DX009 (sc), vehicle: saline) 103 % of control; (dose: 0.3 mg/kg/injection, schedule: Q01DX009 (sc), vehicle: saline) 106 % of control; (dose: 0.52 mg/kg/injection, schedule: Q01DX Z (sc), vehicle: saline) 120 % of control; (dose: 0.86 mg/kg/injection, schedule: Q01DX Z (sc), vehicle: saline) 120 % of control.
On to `Nc1ccc(S(=O)(=O)Nc2ccc(Nc3c4ccccc4nc4ccccc34)cc2)cc1`, for which the T/C is 100 % of control (dose: 1.5 mg/kg/injection, schedule: Q01DX009 (ip), vehicle: saline with Tween-80); 112 % of control (dose: 3.0 mg/kg/injection, schedule: Q01DX009 (ip), vehicle: saline with Tween-80); 112 % of control (dose: 6.0 mg/kg/injection, schedule: Q01DX009 (ip), vehicle: saline with Tween-80); 112 % of control (dose: 12.0 mg/kg/injection, schedule: Q01DX009 (ip), vehicle: saline with Tween-80).
As to `O=C(Nc1ccc(C(=O)Nc2ccc(C3=NCCN3)cc2)cc1)Nc1ccc(C2=NCCN2)cc1`, the T/C is 95 % of control under setting [1], 95 % of control under setting [2], 100 % of control under setting [3] and 110 % of control under setting [4].
As to `O=C(Nc1ccc(S(=O)(=O)O)cc1)c1ccc([N+](=O)[O-])cc1`, the T/C by setting is: under setting [5], 155 % of control; under setting [6], 194 % of control; under setting [7], 150 % of control.
With `OCC1OC(n2cnc3c(Cl)ncnc32)C(O)C1O` (stereo not drawn), the T/C is, setting by setting: under setting [1], 100 % of control; under setting [2], 100 % of control; under setting [3], 100 % of control; under setting [4], 100 % of control; under setting [8], 95 % of control and 100 % of control; under setting [9], 94 % of control and 105 % of control. Also, the T/C under setting [10] was 105 % of control.
With `CC(CNC(=O)CCOS(C)(=O)=O)NC(=O)CCOS(C)(=O)=O` (stereo not drawn), the T/C was 105 % of control under setting [3]; 175 % of control under setting [11]; 115 % of control under setting [4]; 150 % of control under setting [12]; 120 % of control under setting [8]; 120 % of control under setting [9]. Further, the T/C (dose: 833.0 mg/kg/injection, schedule: Q01DX Z (sc), vehicle: carboxymethylcellulose (CMC)) was 110 % of control and the T/C under setting [10] is 110 % of control.
As to `CN(C)CCNc1ccc([N+](=O)[O-])c2sc3ccccc3c(=O)c12`, the T/C was 100 % of control (dose: 14.0 mg/kg/injection, schedule: Q01DX Z (sc), vehicle: carboxymethylcellulose (CMC)); 100 % of control (dose: 23.0 mg/kg/injection, schedule: Q01DX Z (sc), vehicle: carboxymethylcellulose (CMC)); 100 % of control (dose: 39.0 mg/kg/injection, schedule: Q01DX Z (sc), vehicle: carboxymethylcellulose (CMC)); 100 % of control and 111 % of control (dose: 65.0 mg/kg/injection, schedule: Q01DX Z (sc), vehicle: carboxymethylcellulose (CMC)); 100 % of control (dose: 108.0 mg/kg/injection, schedule: Q01DX Z (sc), vehicle: carboxymethylcellulose (CMC)); 111 % of control under setting [11]. For the same compound, the T/C under setting [12] is 105 % of control.
For the compound `CCOC(=O)C(N)Cc1ccc(N(CCCl)CCCl)cc1` (stereo not drawn), the T/C is 110 % of control and 119 % of control under setting [13]; 104 % of control and 110 % of control (dose: 39.0 mg/kg/injection, schedule: Q01DX Z (sc), vehicle: saline); 100 % of control and 104 % of control (dose: 65.0 mg/kg/injection, schedule: Q01DX Z (sc), vehicle: saline); 90 % of control (dose: 108.0 mg/kg/injection, schedule: Q01DX Z (sc), vehicle: saline).
For `c1ccc2[nH]cnc2c1`, the T/C by setting is: (dose: 14.0 mg/kg/injection, schedule: Q01DX Z (sc), vehicle: other) 100 % of control; (dose: 300.0 mg/kg/injection, schedule: Q01DX Z (sc), vehicle: other) 100 % of control; (dose: 500.0 mg/kg/injection, schedule: Q01DX Z (sc), vehicle: other) 100 % of control.
In the case of `CCc1nc(N)nc(N)c1-c1ccc(Cl)cc1`, the T/C under setting [3] was 118 % of control.
`O=C(Nc1ccc(C2=NCCN2)cc1)c1cccc(C(=O)Nc2ccc(C3=NCCN3)cc2)c1`: the T/C under setting [5] was 110 % of control; the T/C under setting [6] was 230 % of control; the T/C under setting [7] was 235 % of control; the T/C (dose: 39.0 mg/kg/injection, schedule: Q01DX Z (sc), vehicle: water) was 270 % of control; the T/C (dose: 65.0 mg/kg/injection, schedule: Q01DX Z (sc), vehicle: water) is 265 % of control; the T/C (dose: 108.0 mg/kg/injection, schedule: Q01DX Z (sc), vehicle: water) is 270 % of control.
Regarding `S=P(N1CC1)(N1CC1)N1CC1`, the T/C by setting is: (dose: 1.08 mg/kg/injection, schedule: Q01DX Z (sc), vehicle: saline) 110 % of control; (dose: 1.5 mg/kg/injection, schedule: Q01DX009 (ip), vehicle: water) 113 % of control; (dose: 1.5 mg/kg/injection, schedule: Q01DX009 (sc), vehicle: water) 105 % of control; (dose: 1.8 mg/kg/injection, schedule: Q01DX Z (sc), vehicle: saline) 100 % of control and 110 % of control; (dose: 3.0 mg/kg/injection, schedule: Q01DX Z (sc), vehicle: saline) 112 % of control; (dose: 5.0 mg/kg/injection, schedule: Q01DX Z (sc), vehicle: saline) 156 % of control. Moreover, the T/C is 94 % of control (dose: 6.0 mg/kg/injection, schedule: Q01DX009 (ip), vehicle: water); 169 % of control (dose: 6.0 mg/kg/injection, schedule: Q01DX009 (sc), vehicle: water); 170 % of control (dose: 8.4 mg/kg/injection, schedule: Q01DX Z (sc), vehicle: saline); 86 % of control (dose: 12.0 mg/kg/injection, schedule: Q01DX009 (sc), vehicle: water); 120 % of control (dose: 14.0 mg/kg/injection, schedule: Q01DX Z (sc), vehicle: saline); 104 % of control and 120 % of control under setting [13].
